Paper PMC7790160 (Journal of pharmaceutical sciences, 2020)

Key:
H460 (KRAS mutated) = assay: Cytotoxicity assay; format: cell-based
H1299 (p53 mutated) = assay: Cytotoxicity assay; format: cell-based; settings: H1299, 48 h, single agent
[1] = system: H1975-CL1 (EGFR G796D mutation rociletinib resistant); assay: Cytotoxicity assay; format: cell-based; settings: H1975 CL1, 48 h, single agent; no unit printed in Table 3 (b74 gives μM)
[2] = cited from earlier work
[3] = system: H1975 (T790M EGFR ERL Resistant); assay: Cytotoxicity assay; format: cell-based; settings: H1975, 48 h, single agent; no unit printed in Table 3 (b74 gives μM)
NSCLC cell lines = assay: Cytotoxicity assay, statements across cell lines; format: cell-based
total EGFR = assay: Western blot analysis of total EGFR; format: cell-based; settings: all cell lines, 48 h
[4] = system: HCC827-Cl4 (T790M EGFR ERL Resistant); assay: Cytotoxicity assay; format: cell-based; settings: HCC827-CL4, 48 h, single agent; no unit printed in Table 3 (b74 gives μM)
total MET = assay: Western blot analysis of total MET; format: cell-based; settings: all cell lines, 48 h
HCC827 [5] = assay: Cytotoxicity assay; format: cell-based; settings: HCC827, 48 h, single agent; no unit printed in Table 3 (b74 gives μM)
[6] = system: HCC827–4 μM (Acquired 4 μM ERL Resistant); assay: Cytotoxicity assay; format: cell-based; settings: 48 h, single agent, no unit printed in Table 3 (b74 gives μM)
HCC827 [7] = assay: Apoptosis assay; format: cell-based; settings: 12 μM ERL, 2 μM CDODA-Me alone or in combination, 48 h
HCC827–4 μM = assay: Clonogenic assay; format: cell-based; settings: 12 μM ERL, 48 h, reseeded, p < 0.001
H460 [8] = assay: Clonogenic assay; format: cell-based; settings: 12 μM ERL, 48 h, reseeded, p < 0.001
p-EGFR = assay: Western blot analysis of p-EGFR; format: cell-based; settings: 48 h
[9] = system: EGFR mutated non–small cell lung cancer; settings: patients harboring exon 19 deletion / exon 21 EGFR mutations; cited from earlier work
HCC827–4μM = assay: Apoptosis assay; format: cell-based; settings: 12 μM ERL alone or with 2 μM CDODA-Me, 48 h
HCC827-CL4 = assay: Apoptosis assay; format: cell-based; settings: 12 μM ERL alone or with 2 μM CDODA-Me, 48 h
p-MET = assay: Western blot analysis of p-MET; format: cell-based; settings: 12 μM ERL alone or with 2 μM CDODA-Me, 48 h
H1975 = assay: Apoptosis assay; format: cell-based; settings: 12 μM ERL alone or with 2 μM CDODA-Me, 48 h
HCC827 [10] = assay: Clonogenic assay; format: cell-based; settings: 12 μM ERL, 48 h, reseeded, p < 0.001
H460 [11] = assay: Apoptosis assay; format: cell-based; settings: 12 μM ERL alone or with 2 μM CDODA-Me, 48 h
H1975-CL1 = assay: Apoptosis assay; format: cell-based; settings: 12 μM ERL alone or with 2 μM CDODA-Me, 48 h

Molecule `COC(=O)[C@@]1(C)CC[C@]2(C)CC[C@]3(C)C(=CC(=O)[C@@H]4[C@@]5(C)C=C(C#N)C(=O)C(C)(C)[C@@H]5CC[C@]43C)[C@@H]2C1` [CDODA-Me, Methyl 2-cyano-3, 11-dioxo-18b-olean-1, 12-dien-30-oate] has an IC50 (H460 (KRAS mutated); H460, 48 h, single agent, no unit printed in Table 3 (b74 gives μM)) of 5.5 ± 0.8 µM, an IC50 (H1299 (p53 mutated)) of 5.4 ± 2.4 µM and an IC50 [1] of 6.6 ± 1.1 µM. The “permeability (classification)” value [2] was “high permeability”, the “solubility (classification)” value [2] was “low solubility” and the IC50 [3] was 6.2 ± 1.64 µM. The cell viability (NSCLC cell lines; 2 μM, all cell lines) was under 20%, the IC20 (NSCLC cell lines; resistant HCC827 cells) was 2000 nM and the “total EGFR expression” value (total EGFR) was “no effect”. For the same molecule, the IC50 [4] was 5.7 ± 2.04 µM, the “total MET expression” value (total MET) was “no effect” and the IC50 (HCC827 [5]) was 4.5 ± 1.6 µM. The IC50 [6] was 4.4 ± 1.3 µM and the apoptotic cells (HCC827 [7]) was “approximately 21.68 ± 1.8%”.
For `C#Cc1cccc(Nc2ncnc3cc(OCCOC)c(OCCOC)cc23)c1` [ERL, erlotinib], the IC50 (H460 (KRAS mutated); Homo sapiens, NCI-H460, 48 h) was 16.3 ± 1.2 µM, the colony formation (HCC827–4 μM) was “decreased colony formation” and the colony formation (H460 [8]) was “decreased colony formation”. The p-EGFR expression (p-EGFR; H1975-CL1, 12 μM ERL alone or with 2 μM CDODA-Me) was “not significant”, the P-EGFR expression (p-EGFR; HCC827, 12 μM ERL (p < 0.01) or 12 μM ERL + 2 μM CDODA-Me (p < 0.05)) was “significantly decreased” and the “patients with decreased tumor volume” value [9] was 70%. The apoptotic cells (HCC827–4μM) was 11 ± 2.9%, the apoptotic cells (HCC827-CL4) was 8 ± 2.5% and the “expression of p-MET” value (p-MET; H1975-CL1, p < 0.001) was “decreased p-MET expression”. For the same molecule, the “expression of p-MET” value (p-MET; H1975, p < 0.01) was “decreased p-MET expression”, the “expression of p-MET” value (p-MET; HCC827-CL4, p < 0.01) was “decreased p-MET expression” and the apoptotic cells (H1975) was 15 ± 3.7%. For the same molecule, the colony formation (HCC827 [10]) was “decreased colony formation”, the apoptotic cells (HCC827 [7]) was about 64.23 ± 1.7% and the apoptotic cells (H460 [11]) was 5 ± 4.3%. The apoptotic cells (H1975-CL1) was 9 ± 2.7%.
